Drawing on ChEMBL document CHEMBL3091433, “Structure-based design of substituted hexafluoroisopropanol-arylsulfonamides as modulators of RORc” (Bioorg Med Chem Lett, 2013), this text covers EC50, IC50 and Imax for 26 compounds.

For assay [1], the target named is T1, Nuclear receptor ROR-gamma (Homo sapiens, UniProt P51449).
T1 sequence (P51449 whole entry): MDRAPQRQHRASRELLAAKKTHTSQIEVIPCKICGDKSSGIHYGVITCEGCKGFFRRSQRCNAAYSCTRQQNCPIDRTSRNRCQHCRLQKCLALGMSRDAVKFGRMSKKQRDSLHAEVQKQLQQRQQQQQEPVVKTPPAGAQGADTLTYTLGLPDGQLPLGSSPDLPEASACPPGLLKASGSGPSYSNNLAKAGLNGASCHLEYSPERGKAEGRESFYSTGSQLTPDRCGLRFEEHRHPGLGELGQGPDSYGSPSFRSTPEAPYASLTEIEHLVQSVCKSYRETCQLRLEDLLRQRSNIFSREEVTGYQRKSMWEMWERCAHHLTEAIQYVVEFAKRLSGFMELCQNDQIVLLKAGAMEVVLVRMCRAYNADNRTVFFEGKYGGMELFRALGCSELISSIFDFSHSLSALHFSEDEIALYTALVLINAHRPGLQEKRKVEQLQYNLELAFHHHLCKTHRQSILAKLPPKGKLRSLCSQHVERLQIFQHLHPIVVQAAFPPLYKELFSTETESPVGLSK
Description: Inverse agonist activity at N-terminal 6xHis-tagged human RORc ligand binding domain (241 to 486) expressed in bacterial expression system assessed as inhibition of SRC1 co-activator peptide recruitment after 3 hrs by TR-FRET analysis

Assay [2] concerns the target T1, Nuclear receptor ROR-gamma. This is another data set of the same source.
Description: Displacement of [3H2]-25-hydroxycholesterol from N-terminal 6xHis-tagged human RORc ligand binding domain (241 to 486) expressed in bacterial expression system after 3 hrs by scintillation counting analysis
Assay [3] concerns PBMC. Description: Inhibition of IFNgamma production in human PBMC after 48 hrs by Sandwich ELISA.
The test system of assay [4] is PBMC. Description: Antiinflammatory activity in human PBMC assessed as inhibition of IL-17 production after 48 hrs by Sandwich ELISA relative to control. The class given is functional. (In an ELISA, binding on a coated surface is turned into a signal by an enzyme label.)
Assay [5] has as its system PBMC. The assay can be described thus: Cytotoxicity against human PBMC assessed as effect on cell physiology after 48 hrs by CellTiter-Glo assay. In general terms: ATP-based viability assays read luminescence as a measure of living cells.
Assay [6] deals with PBMC. The assay can be described thus: cells. The settings on record: Homo sapiens, 48 h.

A word on the EC50: it is the concentration that produces a half-maximal response. The term IC50 denotes the midpoint of a concentration-inhibition curve. Low readings indicate higher potency, high ones lower potency.

For the compound `O=S(=O)(c1ccccc1)N1CCc2cc(C(O)(C(F)(F)F)C(F)(F)F)ccc21`, a half-maximal effect in assay [1] (EC50) was put at 5 µM. In addition, the 50% inhibitory concentration (IC50) in assay [2] was found to be 0.883 µM.
In the same order, the values of `N#Cc1ccccc1S(=O)(=O)N(CC(F)(F)F)c1ccc(C(O)(C(F)(F)F)C(F)(F)F)cc1` are 0.92 µM and 0.52 µM.
The compound `N#Cc1cccc(S(=O)(=O)N(CC(F)(F)F)c2ccc(C(O)(C(F)(F)F)C(F)(F)F)cc2)c1` registered an EC50 in assay [1] of 0.1 µM. Besides, in assay [2], the midpoint of inhibition, the IC50, lay at 0.19 µM.
On to `Cc1ccc(S(=O)(=O)N(CC(F)(F)F)c2ccc(C(O)(C(F)(F)F)C(F)(F)F)cc2)cc1`, for which a half-maximal effect in assay [1] (EC50) was put at 0.02 µM. For the same compound, in assay [2], the IC50 stood at 0.051 µM.
In the case of `O=S(=O)(c1cccnc1)N(CC(F)(F)F)c1ccc(C(O)(C(F)(F)F)C(F)(F)F)cc1`, the EC50 in assay [1] came to 1 µM. In assay [2], this compound displayed a half-maximal inhibitory concentration (IC50) of 0.748 µM.
In assay [2], `O=S(=O)(C1CC1)N(CC(F)(F)F)c1ccc(C(O)(C(F)(F)F)C(F)(F)F)cc1` yielded an IC50 of 5 µM.
Compound `O=S(=O)(Cc1ccccc1)N(CC(F)(F)F)c1ccc(C(O)(C(F)(F)F)C(F)(F)F)cc1` registered an EC50 in assay [1] of more than 2 µM. For the same compound, in assay [2], the midpoint of inhibition, the IC50, lay at 0.52 µM.
For the compound `O=S(=O)(c1ccccc1)N(CCO)c1ccc(C(O)(C(F)(F)F)C(F)(F)F)cc1`, the EC50 in assay [1] was 1 µM. Besides, the IC50 in assay [2] is 4 µM.
In the same order, the values of `COCCN(c1ccc(C(O)(C(F)(F)F)C(F)(F)F)cc1)S(=O)(=O)c1ccccc1` are more than 10 µM and 3 µM.
In the same order, the values of `CS(=O)(=O)CCN(c1ccc(C(O)(C(F)(F)F)C(F)(F)F)cc1)S(=O)(=O)c1ccccc1` are more than 10 µM and more than 10 µM.
Taken in the same sequence, the figures for `CC(=O)NCCN(c1ccc(C(O)(C(F)(F)F)C(F)(F)F)cc1)S(=O)(=O)c1ccccc1` were more than 10 µM and more than 10 µM.
For `O=C(O)CCN(c1ccc(C(O)(C(F)(F)F)C(F)(F)F)cc1)S(=O)(=O)c1ccccc1`, the EC50 in assay [1] was more than 10 µM. Also, the half-maximal inhibitory concentration (IC50) in assay [2] was more than 10 µM.
Consider `O=S(=O)(c1ccccc1)N(CCC(F)(F)F)c1ccc(C(O)(C(F)(F)F)C(F)(F)F)cc1`, for which the half-maximal effective concentration (EC50) in assay [1] worked out at 4 µM. The compound further came in with an IC50 in assay [2] of 0.519 µM.
In the same order, the values of `O=S(=O)(c1ccccc1)N(Cc1ccccc1)c1ccc(C(O)(C(F)(F)F)C(F)(F)F)cc1` are 8 µM and 0.467 µM.
In the same order, the values of `COC(c1ccc(N(CC(F)(F)F)S(=O)(=O)c2ccccc2)cc1)(C(F)(F)F)C(F)(F)F` are 9 µM and 0.9 µM.
`O=C(O)c1ccc(N(CC(F)(F)F)S(=O)(=O)c2ccccc2)cc1` yielded an EC50 in assay [1] of more than 10 µM. The IC50 in assay [2] was more than 10 µM.
In turn, `NC(=O)c1ccc(N(CC(F)(F)F)S(=O)(=O)c2ccccc2)cc1` had an EC50 in assay [1] of more than 10 µM. The compound further registered an IC50 in assay [2] of more than 10 µM.
Compound `NS(=O)(=O)c1ccc(N(CC(F)(F)F)S(=O)(=O)c2ccccc2)cc1` yielded an EC50 in assay [1] of more than 10 µM. The compound also returned an IC50 in assay [2] of 9 µM.
Regarding `CCN(c1cccc(C(O)(C(F)(F)F)C(F)(F)F)c1)S(=O)(=O)c1ccccc1`, the EC50 in assay [1] was 0.9 µM. Further, the 50% inhibitory concentration (IC50) in assay [2] was 0.329 µM.
The compound `O=C(c1ccccc1)N(CC(F)(F)F)c1ccc(C(O)(C(F)(F)F)C(F)(F)F)cc1` had an EC50 in assay [1] of 4 µM. In assay [2], this compound had an IC50 of 2 µM.
Taken in the same sequence, the figures for `O=C(Nc1ccc(C(O)(C(F)(F)F)C(F)(F)F)cc1)c1ccccc1` were more than 10 µM and more than 10 µM.
Taken in the same sequence, the figures for `O=C(Nc1ccc(C(O)(C(F)(F)F)C(F)(F)F)cc1)c1ccc(C(F)(F)F)cc1` were more than 10 µM and more than 10 µM.
In the case of `CC(=O)Nc1nc(C)c(S(=O)(=O)Nc2ccc(C(O)(C(F)(F)F)C(F)(F)F)cc2)s1`, the EC50 in assay [1] is 0.911 µM. The same compound gave an IC50 in assay [2] of 2 µM.
With `O=S(=O)(Nc1ccc(C(O)(C(F)(F)F)C(F)(F)F)cc1)c1ccccc1`, the IC50 in assay [2] was more than 10 µM.
For `O=S(=O)(c1ccccc1)N(CC(F)(F)F)c1ccc(CO)cc1`, the EC50 in assay [1] was more than 10 µM. Further, in assay [2], the 50% inhibitory concentration (IC50) is more than 10 µM.
Regarding `O=S(=O)(c1ccccc1)N(CC(F)(F)F)c1ccc(C(O)(C(F)(F)F)C(F)(F)F)cc1` [T091317], the concentration for a half-maximal effect (EC50) is more than 20 µM in the assay on PBMC [3], more than 20 µM in the assay on PBMC [5] and 3 µM with PBMC [6]. Moreover, the Imax in the assay on PBMC [4] was 81%.
